According to patent US12139486B2, “Octahydro fused azadecalin glucocorticoid receptor modulators” (Corcept Therapeutics, Inc., priority 2013, dated 2024):

How the values were obtained:
human recombinant GR = biological target: T1, human recombinant GR (Homo sapiens, UniProt P04150); assay: Human Glucocorticoid Receptor (GR) Fluorescence Polarisation (FP) Binding Assay; details: Ki from IC50 by ligand depletion correction; displacement of Fluorome GS Red
T1 construct: purchased PanVera P2812
T1 sequence (P04150 1-777): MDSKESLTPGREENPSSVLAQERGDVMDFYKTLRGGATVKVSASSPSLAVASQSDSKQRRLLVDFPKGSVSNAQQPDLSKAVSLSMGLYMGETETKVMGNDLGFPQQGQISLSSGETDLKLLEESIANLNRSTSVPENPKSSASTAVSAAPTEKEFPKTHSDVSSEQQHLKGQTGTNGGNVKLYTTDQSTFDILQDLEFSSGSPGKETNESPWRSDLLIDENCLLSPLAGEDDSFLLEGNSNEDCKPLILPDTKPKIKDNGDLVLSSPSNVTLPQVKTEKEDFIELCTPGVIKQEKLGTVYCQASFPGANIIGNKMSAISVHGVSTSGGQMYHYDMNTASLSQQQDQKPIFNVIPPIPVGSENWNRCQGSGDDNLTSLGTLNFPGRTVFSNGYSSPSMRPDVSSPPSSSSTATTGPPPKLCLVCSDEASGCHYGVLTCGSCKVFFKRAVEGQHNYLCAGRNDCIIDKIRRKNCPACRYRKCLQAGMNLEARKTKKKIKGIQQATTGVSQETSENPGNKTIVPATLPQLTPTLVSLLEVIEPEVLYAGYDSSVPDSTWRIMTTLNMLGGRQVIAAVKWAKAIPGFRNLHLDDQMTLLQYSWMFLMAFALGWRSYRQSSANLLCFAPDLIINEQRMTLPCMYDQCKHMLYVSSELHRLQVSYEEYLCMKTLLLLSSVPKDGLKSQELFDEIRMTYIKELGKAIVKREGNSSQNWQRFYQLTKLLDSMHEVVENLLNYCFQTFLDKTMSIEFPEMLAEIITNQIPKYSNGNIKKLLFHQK
Procedure: The following is a description of a FP assay for measuring compound inhibition of labelled glucocorticoid binding to the human recombinant GR.
The binding affinity of test compounds was determined using a FP binding assay using human recombinant GR (PanVera P2812) and a fluorescent labelled glucocorticoid ligand (Fluorome GS Red) (PanVera P2894). The presence of inhibitors prevents the formation of a GS Red/GR complex resulting in a decrease in the measured polarisation value. The change in polarisation value in the presence of test compounds is used to calculate the binding affinity of the compound for GR.
This assay was performed in 384 well, black, round-bottom, polypropylene micro titre plates in a final volume of 20 μl. The assay contained 5 μl 1 nM GR (final concentration), 5 μl 0.5 nM Fluorome GS Red (final concentration) in the presence of 10p test compounds. Positive control wells (high polarisation) receive, 10 μl 2% (v:v) DMSO vehicle (1% (v/v) final concentration)+5 μl 1 nM GR and 5 μl 0.5 nM Fluorome GS Red. […] Assay blank background wells (used for normalisation) receive 15 μl 1×GS screening buffer+5 μl GR.
For the IC50 determination (concentration of compound that displaces 50% of the bound GS Red), compounds were tested at eight different concentrations in duplicate in two independently performed experiments. Compounds were prepared as solubilised solids at 10 mM in DMSO. On the day of assay, an 8 point half-log serial dilution (55 μl DMSO+25 μl compound solution) was prepared. A 1:50 dilution (1 μl compound solution+49 μl 1×GR screening buffer) was prepared for each compound. The compounds were prepared at 2× final assay concentration.
The plates were mixed and incubated for 4 hour at room temperature. FP was measured using an Envision Excite plate reader with 535 nm excitation and 590 nm emission interference filters.
Milli-polarisation (mP) values were calculated using the below equation: mP=1000*(S−G*P)/(S+G*P) where S and P are assay blank background subtracted fluorescence units, G=G-factor (1.07).
Compound IC50 values were calculated by plotting a [compound] v. % inhibition curve and fitting the data to a 4-parameter logistic fit equation.
10×GR screening buffer (100 mM potassium phosphate pH 7.4, 200 mM Na2MoO4, 1 mM EDTA, 20% (v/v) DMSO). To prepare 1×GR screening buffer, combine 1 ml 10×GR screening buffer (PanVera P2814)+1 ml stabilising peptide (PanVera P2815)+7.95 ml 4° C. MQ water. Add 50p 1M DTT, vortex and place on ice until use.

glucocorticoid receptor = biological target: T2, glucocorticoid receptor (Homo sapiens, UniProt P04150); assay: HepG2 Tyrosine Aminotransferase (TAT) Assay; format: cell-based
T2 construct: endogenous in cells; host or cells: HepG2
T2 sequence (P04150 1-777): T1 sequence (P04150 1-777)
Procedure: Glucocorticoid mediated activation of TAT occurs by transactivation of glucocorticoid response elements in the TAT promoter by glucocorticoid receptor-agonist complex.
HepG2 cells were cultured using MEME media supplemented with 10% (v/v) foetal bovine serum; 2 mM L-glutamine and 1% (v/v) NEAA at 37° C., 5%/95% (v/v) CO2/air.
Compounds were serially half log diluted in 100% (v/v) dimethylsulphoxide from a 10 mM stock.
HepG2 cells were then lysed with 30 μl of cell lysis buffer containing a protease inhibitor cocktail for 15 minutes at 4° C. […] After 2 hours incubation at 37° C. the reaction was terminated by the addition of 15 μl of 10 M aqueous potassium hydroxide solution, and the plates incubated for a further 30 minutes at 37° C.
[compound] and fitting the data to a 4 parameter logistic equation.

Ki (human recombinant GR) [nM]	Ki (glucocorticoid receptor) [nM]	Structure (SMILES)
> 1	20 to 100	Cn1cc(S(=O)(=O)N2CC[C@H]3Cc4c(cnn4-c4ccc(F)cc4)C[C@]3(C(=O)c3cc(C(F)(F)F)ccn3)C2)nn1 [Example 2P, ((4aR,8aS)-1-(4-fluorophenyl)-6-((1-methyl-1H-1,2,3-triazol-4-yl)sulfonyl)-4,4a,5,6,7,8,8a,9-octahydro-1H-pyrazolo[3,4-g]isoquinolin-4a-yl)(4-(trifluoromethyl)pyridin-2-yl)methanone]
0.5 to 1	< 20	O=C(c1ccccn1)[C@]12Cc3cnn(-c4ccc(F)cc4)c3C[C@@H]1CCN(S(=O)(=O)c1cccc(C(F)(F)F)n1)C2 [Example 2Q, ((4aR,8aS)-1-(4-fluorophenyl)-6-((6-(trifluoromethyl)pyridin-2-yl)sulfonyl)-4,4a,5,6,7,8,8a,9-octahydro-1H-pyrazolo[3,4-g]isoquinolin-4a-yl)(pyridin-2-yl)methanone]
< 0.5	< 20	Cc1ccnc(C(=O)[C@]23Cc4cnn(-c5ccc(F)cc5)c4C[C@@H]2CCN(S(=O)(=O)c2cnn(C)n2)C3)c1 [Example 2R, ((4aR,8aS)-1-(4-fluorophenyl)-6-((2-methyl-2H-1,2,3-triazol-4-yl)sulfonyl)-4,4a,5,6,7,8,8a,9-octahydro-1H-pyrazolo[3,4-g]isoquinolin-4a-yl)(4-methylpyridin-2-yl)methanone]
< 0.5	20 to 100	CCCn1ncc(S(=O)(=O)N2CC[C@H]3Cc4c(cnn4-c4ccc(F)cc4)C[C@]3(C(=O)c3cscn3)C2)n1 [Example 2S, ((4aR,8aS)-1-(4-fluorophenyl)-6-((2-propyl-2H-1,2,3-triazol-4-yl)sulfonyl)-4,4a,5,6,7,8,8a,9-octahydro-1H-pyrazolo[3,4-g]isoquinolin-4a-yl)(thiazol-4-yl)methanone]
> 1	20 to 100	N#Cc1cccc(S(=O)(=O)N2CC[C@H]3Cc4c(cnn4-c4ccc(F)cc4)C[C@]3(C(=O)c3ccccn3)C2)c1 [Example 2T, 3-(((4aR,8aS)-1-(4-fluorophenyl)-4a-picolinoyl-4a,5,7,8,8a,9-hexahydro-1H-pyrazolo[3,4-g]isoquinolin-6(4H)-yl)sulfonyl)benzonitrile]
> 1	20 to 100	O=C(c1ccccn1)[C@]12Cc3cnn(-c4ccc(F)cc4)c3C[C@@H]1CCN(S(=O)(=O)c1ccc(C(F)(F)F)c(F)c1)C2 [Example 2U, ((4aR,8aS)-6-((3-fluoro-4-(trifluoromethyl)phenyl)sulfonyl)-1-(4-fluorophenyl)-4,4a,5,6,7,8,8a,9-octahydro-1H-pyrazolo[3,4-g]isoquinolin-4a-yl)(pyridin-2-yl)methanone]
> 1	20 to 100	CN1CCOc2cc(S(=O)(=O)N3CC[C@H]4Cc5c(cnn5-c5ccc(F)cc5)C[C@]4(C(=O)c4ccccn4)C3)cnc21 [Example 2V, ((4aR,8aS)-1-(4-fluorophenyl)-6-((4-methyl-3,4-dihydro-2H-pyrido[3,2-b][1,4]oxazin-7-yl)sulfonyl)-4,4a,5,6,7,8,8a,9-octahydro-1H-pyrazolo[3,4-g]isoquinolin-4a-yl)(pyridin-2-yl)methanone]
> 1	> 100	CCCn1nncc1S(=O)(=O)N1CC[C@H]2Cc3c(cnn3-c3ccc(F)cc3)C[C@]2(C(=O)c2nccs2)C1 [Example 2W, ((4aR,8aS)-1-(4-fluorophenyl)-6-((1-propyl-1H-1,2,3-triazol-5-yl)sulfonyl)-4,4a,5,6,7,8,8a,9-octahydro-1H-pyrazolo[3,4-g]isoquinolin-4a-yl)(thiazol-2-yl)methanone]
> 1	> 100	Cn1nncc1S(=O)(=O)N1CC[C@H]2Cc3c(cnn3-c3ccc(F)cc3)C[C@]2(C(=O)c2cc(C(F)(F)F)ccn2)C1 [Example 2X, ((4aR,8aS)-1-(4-fluorophenyl)-6-((1-methyl-1H-1,2,3-triazol-5-yl)sulfonyl)-4,4a,5,6,7,8,8a,9-octahydro-1H-pyrazolo[3,4-g]isoquinolin-4a-yl)(4-(trifluoromethyl)pyridin-2-yl)methanone]
> 1	> 100	Cn1ncc(S(=O)(=O)N2CC[C@H]3Cc4c(cnn4-c4ccc(F)cc4)C[C@]3(C(=O)c3nccs3)C2)n1 [Example 2Y, ((4aR,8aS)-1-(4-fluorophenyl)-6-((2-methyl-2H-1,2,3-triazol-4-yl)sulfonyl)-4,4a,5,6,7,8,8a,9-octahydro-1H-pyrazolo[3,4-g]isoquinolin-4a-yl)(thiazol-2-yl)methanone]
< 0.5	20 to 100	CC(C)n1ncc(S(=O)(=O)N2CC[C@H]3Cc4c(cnn4-c4ccc(F)cc4)C[C@]3(C(=O)c3nccs3)C2)n1 [Example 2Z, ((4aR,8aS)-1-(4-fluorophenyl)-6-((2-isopropyl-2H-1,2,3-triazol-4-yl)sulfonyl)-4,4a,5,6,7,8,8a,9-octahydro-1H-pyrazolo[3,4-g]isoquinolin-4a-yl)(thiazol-2-yl)methanone]
